{
  "source": "patent US7569554B2",
  "about": "“Synergistic treatment of cancer using immunomers in conjunction with therapeutic agents” (Idera Pharmaceuticals, Inc., priority 2003, dated 2009)",
  "tested_on": "vertebrate cells, preferably BALB/c mouse spleen cells or human PBMC",
  "test": "Immunostimulatory activity, IL-12/IL-6 secretion (Tables 9-12, cell culture not given)",
  "assay_type": "cell-based",
  "protocol": "The secretion of IL-12 and IL-6 in vertebrate cells, preferably BALB/c mouse spleen cells or human PBMC, was measured by sandwich ELISA. The required reagents including cytokine antibodies and cytokine standards were purchased form PharMingen, San Diego, Calif. ELISA plates (Costar) were incubated with appropriate antibodies at 5 μg/mL in PBSN buffer (PBS/0.05% sodium azide, pH 9.6) overnight at 4° C. and then blocked with PBS/i % BSA at 37° C. for 30 minutes. Cell culture supernatants and cytokine standards were appropriately diluted with PBS/10% FBS, added to the plates in triplicate, and incubated at 25° C. for 2 hours. Plates were overlaid with 1 μg/mL appropriate biotinylated antibody and incubated at 25° C. for 1.5 hours. The plates were then washed extensively with PBS-T Buffer (PBS/0.05% Tween 20) and further incubated at 25° C. for 1.5 hours after adding streptavidin conjugated peroxidase (Sigma, St. Louis, Mo.). The plates were developed with Sure Blue™ (Kirkegaard and Perry) chromogenic reagent and the reaction was terminated by adding Stop Solution (Kirkegaard and Perry). The color change was measured on a Ceres 900 HDI Spectrophotometer (Bio-Tek Instruments).\nIn all instances, the levels of IL-12 and IL-6 in the cell culture supernatants were calculated from the standard curve constructed under the same experimental conditions for IL-112 and IL-6, respectively. The levels of IL-10, IFN-gamma and TNF-α in the cell culture supernatants were calculated from the standard curve constructed under the same experimental conditions for IL-10, IFN-gamma and TNF-α, respectively.",
  "data": [
    {"substance": "5′-CTCACTTTCGTTCTCTGT-3′ [Oligo 51]", "values": [
      {"measurement": "IL-6", "setting": "@ 3 μg/mL, Table 9", "result": 348, "unit": "pg/mL"},
      {"measurement": "IL-12", "setting": "@ 3 μg/mL, Table 9", "result": 404, "unit": "pg/mL"}
    ]},
    {"substance": "Immunomer 57: SEQ ID NO: 32, 11mer (DNA TCTTTNGTTCT; listed as DNA, chemistry not fully specified)", "values": [
      {"measurement": "IL-6", "setting": "@ 3 μg/mL, Table 9", "result": 365, "unit": "pg/mL"},
      {"measurement": "IL-12", "setting": "@ 3 μg/mL, Table 9", "result": 591, "unit": "pg/mL"}
    ]},
    {"substance": "Immunomer 58: SEQ ID NO: 33, 11mer (DNA TCTTTCNTTCT; listed as DNA, chemistry not fully specified)", "values": [
      {"measurement": "IL-6", "setting": "@ 3 μg/mL, Table 9", "result": 283, "unit": "pg/mL"},
      {"measurement": "IL-12", "setting": "@ 3 μg/mL, Table 9", "result": 303, "unit": "pg/mL"}
    ]},
    {"substance": "Immunomer 61: SEQ ID NO: 34, 11mer (DNA TCTGTNGTTCT; listed as DNA, chemistry not fully specified)", "values": [
      {"measurement": "IL-6", "setting": "3 μg/mL, Table 10", "result": 470, "unit": "pg/mL"},
      {"measurement": "IL-12", "setting": "3 μg/mL, Table 10", "result": 1127, "unit": "pg/mL"}
    ]},
    {"substance": "Immunomer 62: SEQ ID NO: 35, 11mer (DNA TCTGTCNTTCT; listed as DNA, chemistry not fully specified)", "values": [
      {"measurement": "IL-6", "setting": "3 μg/mL, Table 10", "result": 296, "unit": "pg/mL"},
      {"measurement": "IL-12", "setting": "3 μg/mL, Table 10", "result": 787, "unit": "pg/mL"}
    ]},
    {"substance": "Immunomer 65: SEQ ID NO: 4, 18mer (DNA CTATCTGANGTTCTCTGT; listed as DNA, chemistry not fully specified)", "values": [
      {"measurement": "IL-6", "setting": "3 μg/mL, Table 11", "result": 192, "unit": "pg/mL"},
      {"measurement": "IL-12", "setting": "3 μg/mL, Table 11", "result": 443, "unit": "pg/mL"}
    ]},
    {"substance": "Immunomer 66: SEQ ID NO: 5, 18mer (DNA CTATCTGACNTTCTCTGT; listed as DNA, chemistry not fully specified)", "values": [
      {"measurement": "IL-6", "setting": "3 μg/mL, Table 11", "result": 464, "unit": "pg/mL"},
      {"measurement": "IL-12", "setting": "3 μg/mL, Table 11", "result": 627, "unit": "pg/mL"}
    ]},
    {"substance": "Immunomer 67: SEQ ID NO: 6, 14mer (DNA CTGANGTTCTCTGT; listed as DNA, chemistry not fully specified)", "values": [
      {"measurement": "IL-6", "setting": "3 μg/mL, Table 11", "result": 152, "unit": "pg/mL"},
      {"measurement": "IL-12", "setting": "3 μg/mL, Table 11", "result": 548, "unit": "pg/mL"}
    ]},
    {"substance": "Immunomer 68: SEQ ID NO: 7, 14mer (DNA CTGACNTTCTCTGT; listed as DNA, chemistry not fully specified)", "values": [
      {"measurement": "IL-6", "setting": "3 μg/mL, Table 11", "result": 1020, "unit": "pg/mL"},
      {"measurement": "IL-12", "setting": "3 μg/mL, Table 11", "result": 1052, "unit": "pg/mL"}
    ]},
    {"substance": "Immunomer 69: SEQ ID NO: 36, 11mer (DNA TCTGANGTTCT; listed as DNA, chemistry not fully specified)", "values": [
      {"measurement": "IL-6", "setting": "3 μg/mL, Table 11", "result": 2724, "unit": "pg/mL"},
      {"measurement": "IL-12", "setting": "3 μg/mL, Table 11", "result": 2050, "unit": "pg/mL"}
    ]},
    {"substance": "Immunomer 70: SEQ ID NO: 24, 11mer (DNA TCTGACNTTCT; listed as DNA, chemistry not fully specified)", "values": [
      {"measurement": "IL-6", "setting": "3 μg/mL, Table 11", "result": 1741, "unit": "pg/mL"},
      {"measurement": "IL-12", "setting": "3 μg/mL, Table 11", "result": 1780, "unit": "pg/mL"}
    ]},
    {"substance": "Immunomer 73: SEQ ID NO: 37, 10mer (DNA CTGACGTTCT; listed as DNA, chemistry not fully specified)", "values": [
      {"measurement": "IL-12", "setting": "0.3 μg/mL, Table 12", "result": 697, "unit": "pg/mL"},
      {"measurement": "IL-6", "setting": "1 μg/mL, Table 12", "result": 1454, "unit": "pg/mL"}
    ]},
    {"substance": "Immunomer 74: SEQ ID NO: 37, 10mer (DNA CTGACGTTCT; DNA, backbone and methylation of C not given here; immunomer: two 10mer chains joined by non-nucleotidic linker, linker varies, further chemistry not fully specified)", "values": [
      {"measurement": "IL-12", "setting": "0.3 μg/mL, Table 12", "result": 1162, "unit": "pg/mL"},
      {"measurement": "IL-6", "setting": "1 μg/mL, Table 12", "result": 669, "unit": "pg/mL"}
    ]},
    {"substance": "Immunomer 75: SEQ ID NO: 37, 10mer (DNA CTGACGTTCT; DNA, backbone and methylation of C not given here; immunomer: two 10mer chains joined by non-nucleotidic linker, linker varies, further chemistry not fully specified)", "values": [
      {"measurement": "IL-12", "setting": "0.3 μg/mL, Table 12", "result": 1074, "unit": "pg/mL"},
      {"measurement": "IL-6", "setting": "1 μg/mL, Table 12", "result": 1375, "unit": "pg/mL"}
    ]},
    {"substance": "Immunomer 76: SEQ ID NO: 37, 10mer (DNA CTGACGTTCT; DNA, backbone and methylation of C not given here; immunomer: two 10mer chains joined by non-nucleotidic linker, linker varies, further chemistry not fully specified)", "values": [
      {"measurement": "IL-12", "setting": "0.3 μg/mL, Table 12", "result": 563, "unit": "pg/mL"},
      {"measurement": "IL-6", "setting": "1 μg/mL, Table 12", "result": 705, "unit": "pg/mL"}
    ]},
    {"substance": "Immunomer 77: SEQ ID NO: 37, 10mer (DNA CTGACGTTCT; DNA, backbone and methylation of C not given here; immunomer: two 10mer chains joined by non-nucleotidic linker, linker varies, further chemistry not fully specified)", "values": [
      {"measurement": "IL-12", "setting": "0.3 μg/mL, Table 12", "result": 264, "unit": "pg/mL"},
      {"measurement": "IL-6", "setting": "1 μg/mL, Table 12", "result": 543, "unit": "pg/mL"}
    ]}
  ]
}
